Data on 38 molecules can be found in PubChem BioAssay AID1288 (Columbia University Molecular Screening Center, 2008).

As a reminder, the IC50 is the concentration at which inhibition is half-maximal.

For assay [1], the system named is human endothelial cells, TNFa-induced E-selectin, imaging. Briefly: E-selectin induction blockers, endothelial cells – imaging, retest plus dose response, cell count, confirmation (AID 1288).
Assay in assay [2]: as above
To be noted: human endothelial cells, TNFa-induced E-selectin, imaging; cell count toxicity; at 10 µM; stronger effect = lower value.

Active and inactive are the calls of the source. No rule for the calls is given here.

As for `COc1ccc(CS(=O)(=O)/C(Cl)=C(/Cl)C(=O)Nc2ccc(OC)nc2)cc1`, in assay [1], the IC50 was > 10 µM (inactive). The cell count in assay [2] came to 105%.
For `C#CC(=O)N(c1cccc(OC)c1)C(C(=O)NC1CCCC1)c1cccs1` (stereo unspecified), the IC50 in assay [1] is > 10 µM (inactive). Also, the cell count in assay [2] is 90%.
On the same counts, the results for `COc1ccc(NC(=O)/C(Cl)=C(/Cl)S(=O)Cc2ccccc2Cl)cn1` (stereo unspecified) are 5.39 µM and 99.9%.
On to `CCOc1cc(C(=O)NCc2ccc(-c3nc4ccccc4o3)cc2)cc(OCC)c1OCC`, for which the half-inhibitory concentration (IC50) in assay [1] is 2.39 µM. Moreover, the cell count in assay [2] stood at 22.9%.
The corresponding values for `COCC(C)NC(=O)CCS(=O)(=O)c1nc(-c2ccc(OC)cc2)cc(C(F)(F)F)n1` (stereo unspecified) are > 10 µM (inactive) and 83%.
The corresponding values for `O=C(Nc1ccccc1)c1nnsc1S(=O)c1ccc(Cl)cc1` (stereo unspecified) are 3.58 µM and 16.1%.
On to `CC(C)(C)C(=O)/C(=C\c1cccc([N+](=O)[O-])c1)n1cncn1`, for which the IC50 in assay [1] is 3.04 µM. Besides, in assay [2], the cell count came out at 23.9%.
With `CN1/C(=C/C(=O)c2nc(S(C)(=O)=O)ncc2Cl)C(C)(C)c2ccccc21`, in assay [1], the IC50 is > 10 µM (inactive). For the same molecule, in assay [2], the cell count was determined as 97.9%.
On the same counts, the results for `CCc1c(C)c(C#N)c2nc3ccccc3n2c1Cl` are 1.98 µM and 70%.
Take `C=C1C(=O)C=C2CN(C(=O)c3ccccc3)[C@@](Cc3ccc(F)cc3)(C(=O)OC)[C@@H]12`: in assay [1], the IC50 was > 10 µM (inactive). Besides, in assay [2], the cell count is 104%.
The corresponding values for `O=C(Cn1ncc(Cl)c(Cl)c1=O)N1CCc2ccccc21` are 2.48 µM and 40%.
As to `COc1cccc(N2CCN(c3ncnc4c3[nH]c3ccc(F)cc34)CC2C)c1` (stereo unspecified), in assay [1], the IC50 is 1.41 µM. Further, in assay [2], the cell count was 40.9%.
The corresponding values for `Cc1ccc2nc3cc([N+](=O)[O-])cc([N+](=O)[O-])c3cc2c1` are > 10 µM (inactive) and 101%.
As for `CCOC(=O)/C=C/S(=O)(=O)c1ccc(NC(C)=O)cc1`, the IC50 in assay [1] was 1.39 µM. The cell count in assay [2] turned out to be 6.27%.
As for `O=C(CS(=O)c1ccc(C(F)(F)F)cc1[N+](=O)[O-])Oc1ccccc1` (stereo unspecified), the IC50 in assay [1] was > 10 µM (inactive). In addition, the cell count in assay [2] came out at 88.5%.
`O=C(Nc1ccc2oc(-c3cccnc3)nc2c1)c1ccc([N+](=O)[O-])o1`: the IC50 in assay [1] is 2.73 µM. Also, the cell count in assay [2] is 54.4%.
For `COc1ccc(-c2nnc(SCC(=O)N3CCOCC3)o2)cc1OC`, the IC50 in assay [1] was 4.05 µM. In assay [2], the cell count amounted to 18.5%.
On to `N#Cc1ccc(-c2cccnc2)nc1SCc1ccc(Cl)c(Cl)c1`, for which the IC50 in assay [1] is 2.75 µM. Also, the cell count in assay [2] was determined as 2.48%.
On the same counts, the results for `Cc1c(Nc2cc(Cl)c3nonc3c2[N+](=O)[O-])c(=O)n(-c2ccccc2)n1C` are 6.67 µM and 66.3%.
On the same counts, the results for `O=Cc1s/c(=N\S(=O)(=O)c2ccccc2)n(CCCCl)c1Cl` are > 10 µM (inactive) and 108%.
The corresponding values for `N#CC(C#N)=C1C=CC=CN1/C(=C\c1ccccc1Cl)C(=O)c1ccccc1` are 4.99 µM and 68.3%.
Consider `CS(=O)(=O)c1ccc(S(=O)CC(=O)OCc2ccccc2)c([N+](=O)[O-])c1` (stereo unspecified), for which, in assay [1], the IC50 was > 10 µM (inactive). Further, in assay [2], the cell count worked out at 98.7%.
As for `C=CCSc1nc2ccccc2n1C(=O)/C=C/c1cc(OC)c(OC)c(OC)c1`, the half-inhibitory concentration (IC50) in assay [1] is 2.17 µM. Also, the cell count in assay [2] amounted to 24.8%.
The corresponding values for `COc1ccc(-c2cc(C(=O)Nc3cnn(Cc4ccccc4C)c3)no2)cc1OC` are 6.19 µM and 80.4%.
On the same counts, the results for `Cc1nc2scc(-c3ccccc3)c2c(=O)n1N=C1C=CC(=O)C=C1` are > 10 µM (inactive) and 92.3%.
On the same counts, the results for `COc1cc(NC(=O)Cn2ncc(Cl)c(Cl)c2=O)c(C)cc1[N+](=O)[O-]` are > 10 µM (inactive) and 90.1%.
Turning to `C=CS(=O)(=O)c1ccc(Oc2ccc(S(=O)(=O)C=C)cc2)cc1`, the IC50 in assay [1] is > 10 µM (inactive). The cell count in assay [2] was 95.2%.
On to `O=S(=O)(C/C(=C/CO)S(=O)(=O)c1ccccc1)c1ccccc1`, for which, in assay [1], the IC50 is > 10 µM (inactive). Further, the cell count in assay [2] was 97.8%.
The corresponding values for `Cc1ccc(-c2nc(NC(=O)c3nn(C)cc3[N+](=O)[O-])sc2C)cc1C` are > 10 µM (inactive) and 106%.
The corresponding values for `C=C1C(=O)[C@@]23[C@H](O)C[C@@H]4C(C)(C)CC[C@H](O)[C@@]4(C)[C@@H]2CC[C@@H]1[C@H]3O` are 2 µM and 10.1%.
On to `Cc1cc(C)cc(NC(=O)c2ccc([N+](=O)[O-])o2)c1`, for which the IC50 in assay [1] is 2.11 µM. The cell count in assay [2] is 98.3%.
On to `Cn1cc([N+](=O)[O-])c(C(=O)Nc2nc(-c3ccc(Cl)cc3)cs2)n1`, for which the IC50 in assay [1] is > 10 µM (inactive). In addition, in assay [2], the cell count is 97.8%.
`COC(=O)C1CN(C#N)N(c2ccc(Cl)cc2)C12c1ccccc1-c1ccccc12` (stereo unspecified): the IC50 in assay [1] was > 10 µM (inactive). Further, in assay [2], the cell count came to 113%.
For the molecule `O=C(Nc1ccccc1)C1=C(c2ccccc2)S(=O)(=O)CCS1(=O)=O`, in assay [1], the IC50 was 7.63 µM. Also, the cell count in assay [2] worked out at 77.8%.
On the same counts, the results for `CCOC(=O)CS(=O)(=O)c1nc(-c2ccccc2)cc(C(F)(F)F)n1` are > 10 µM (inactive) and 106%.
The corresponding values for `O=C(c1ccc([N+](=O)[O-])cc1)N(Cc1ccc(Br)cc1)N1C(=O)CCCC1=O` are 6.82 µM and 95.3%.
Consider `Cc1ccc(-c2nc(NC(=O)c3nn(C)cc3[N+](=O)[O-])sc2C)cc1`, for which the half-inhibitory concentration (IC50) in assay [1] is 5.25 µM. The cell count in assay [2] stood at 69.6%.
As to `COC(=O)c1ccccc1NC(=O)c1ccc(-c2cccc(Cl)c2)o1`, the half-inhibitory concentration (IC50) in assay [1] is 2.09 µM. In addition, in assay [2], the cell count came out at 13.8%.
